# Reference: PMC3085641 (Bioorganic & medicinal chemistry letters, 2011)
# Biological target: dopamine transporter (DAT) (Rattus norvegicus, UniProt P23977)
# Experiment: biochemical
# Chain of dopamine transporter (DAT) (P23977 whole entry): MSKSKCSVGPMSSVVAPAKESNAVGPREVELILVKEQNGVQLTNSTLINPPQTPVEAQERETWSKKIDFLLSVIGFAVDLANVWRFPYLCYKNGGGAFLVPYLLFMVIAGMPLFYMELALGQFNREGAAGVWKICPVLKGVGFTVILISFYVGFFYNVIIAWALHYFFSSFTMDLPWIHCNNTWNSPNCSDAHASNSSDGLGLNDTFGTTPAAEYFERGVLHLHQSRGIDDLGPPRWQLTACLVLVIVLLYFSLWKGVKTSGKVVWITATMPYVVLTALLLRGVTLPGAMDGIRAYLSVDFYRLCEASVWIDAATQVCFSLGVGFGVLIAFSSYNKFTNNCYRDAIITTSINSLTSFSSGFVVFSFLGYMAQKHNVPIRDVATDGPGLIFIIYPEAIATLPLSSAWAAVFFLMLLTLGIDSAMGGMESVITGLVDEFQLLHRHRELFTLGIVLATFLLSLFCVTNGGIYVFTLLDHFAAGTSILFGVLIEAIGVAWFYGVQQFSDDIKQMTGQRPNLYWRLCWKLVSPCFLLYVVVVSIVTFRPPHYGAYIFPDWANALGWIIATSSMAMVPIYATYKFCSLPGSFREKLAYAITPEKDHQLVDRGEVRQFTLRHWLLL
smiles,measurement,value
CN1C2CCC1[C@@H](CNc1ccc(Br)nc1)[C@@H](c1ccc(Cl)cc1)C2 (stereo partly shown) [Compound 6b],Ki,0.017 µM
